Measured values published in ChEMBL document CHEMBL1138873, “A novel antiproliferative agent, phenylpyridineylbutenol, isolated from Streptomyces sp” (Bioorg Med Chem Lett, 2006).

How the values were obtained:
Assay type in all cases: functional, cell-based
[1] = system: HepG2; assay: Antiproliferative activity against human HepG2 by MTT assay
[2] = system: AGS; assay: Antiproliferative activity against human AGS by MTT assay
[3] = system: HeLa; assay: Antiproliferative activity against human HeLa by MTT assay
[4] = system: A549; assay: Antiproliferative activity against human A549 by MTT assay

IC50 [1]: 1600 µM | IC50 [2]: 1980 µM | IC50 [3]: 1380 µM | IC50 [4]: 1130 µM
SMILES: OC/C=C(\Cc1ccccc1)c1ccccn1
